Assays:
[1] = test system: cAMP PDE from bovine aorta; assay: Assay for inhibition of cAMP PDE; type: biochemical; conditions: bovine aorta enzyme; [3H]cAMP substrate; averaged where multiple testing
Method: (§1) Phosphodiesterase enzymes were partially purified according to the procedures reported by Francis, S. H., and Corbin, J. D. (1988) in Methods in Enzymology, Vol. 159, pp. 722-729, Academic Press, New York and Bradford, M. M. in (1976) Anal. Biochem. 72, 248-254. Specifically, the purification was accomplished by chromatography of a bovine aorta extract on a DEAE Tris-acryl column. The eluted fractions were assayed for the various specific activities. The specific enzyme activities were pooled and concentrated. […] The cGMP-specific phosphodiesterase was assayed in the presence of 1 μM cGMP. The calcium/calmodulin dependent enzyme activity was assayed in the presence of 1 μM cGMP, 0.5 units calmodulin (Sigma P-0270, phosphodiesterase 3',5'-cyclic nucleotide activator from bovine heart) per ml of reaction, and 100 μM Ca^2+.
(§2) Enzyme assays were performed in Millipore 96-well polystyrene microtiter plates in a total assay volume of 100 μL of buffer containing 100 mM Tris-HCl and 5 mM MgSO4 at pH 7.5. cGMP PDE inhibitor compounds were dissolved in DMSO at a concentration of 10 mM and then diluted into the assay to give a final concentration of DMSO in the assay of 1% which has no effect on the enzymatic reaction. The reaction mixture consisted of 10 μL diluted inhibitor, 10 μL of a solution of the appropriate phosphodiesterase enzyme preparation, and 60 μL buffer. The reaction was initiated by the addition 20 μL of 5μM [3H]cGMP (100,000 DPM/well). The tritiated cGMP nucleotides were obtained from DuPont/New England Nuclear Lifesciences Company, Boston, Mass. as an ammonium salt (NET-554 guanosine 3',5'-cyclic phosphate, [8,5'-^3 H]).
(§3) After a 30 minute incubation at room temperature the reaction was stopped by the addition of 50 μL of 210 mM ZnSO4 followed by an addition of 50 μL of freshly prepared 19 mM Ba(OH)2 to specifically precipitate the radiolabled 5'-nucleotide product. The Zn--Ba precipitate was filtered onto glass-fiber filters mats (Wallac, Filtermat A, 102×258 mm) using an automated 96-well harvester (TOMTEC Harvester 96®, MACH II). The precipitate was washed from the microtiterplate to the filtermat with a total volume of 1 ml/well of a wash buffer containing 1 mM NaOH and 100 mM NaCl. The filtermat were dried in a microwave oven and placed in a Wallac sample bag for use with the 1205 BetaPlate™. 10 ml of Beta Plate Scint (LKB) was added to the bag and allowed to diffuse throughout the filter. The radiolabel was then quantitated using a LKB/Wallac 1205 BetaPlate™ scintillation counter. Inhibitor dilution curves were created using six concentrations of the inhibitor in duplicate. IC50 values were determined from a linear regression of a Log Logit transformation of the data. M&B 22,948 (2-o-propoxyphenyl-8-azapurin-6-one) was used as the standard control inhibitor for cGMP PDE and was prepared according to U.S. Pat. No. 3,819,631.
The procedure for the inhibition of cAMP PDE was identical to the procedure for the cGMP-specific phosphodiesterase assay above, except that partially purified cAMP PDE from bovine aorta was collected as pooled from the DEAE tris-acryl column based upon its elution relative to cGMP-specific PDE as well as its specificity for cAMP by hydrolysis and then used. The partially purified cAMP PDE was stored as a concentrated solution at 4° C. This enzyme was diluted 1:30 with an assay buffer prior to use. A substrate solution of [^3 H]cAMP was added to 5 μM adenosine 3', 5'-cyclic monophosphate sodium salt in assay buffer to give a solution with a specific activity of 1000 CPM/pmole (100,000 CPM/20 μl). The reaction was initiated by the addition 20 μL of 5 μM [3H]cAMP (100,000 DPM/well). The tritiated cAMP nucleotides were obtained from DuPont/New England Nuclear Lifesciences Company, Boston, Mass. as an ammonium salt (NET-275 adenosine 3',5'-cyclic phosphate, (2,8-^3 H]). Ro 20-1724 was used as the standard control (obtained from Hoffmann LaRoche, Nutley, N.J.).

[2] = target: T1, cGMP-specific PDE from bovine aorta (Bos taurus, UniProt Q28156); assay: Assay for inhibition of cGMP PDE; type: biochemical; conditions: bovine aorta enzyme; 30 minute incubation at room temperature, pH 7.5; averaged where multiple testing
T1 construct: chromatography of a bovine aorta extract on a DEAE Tris-acryl column; from tissue; host or cells: bovine aorta
Method: as §1
The partially purified cGMP-specific PDE from bovine aorta was stored as a concentrated solution in glycerol at 4° C. Prior to use it was diluted approximately 1:3000 with an assay buffer containing 100 mM Tris-HCl and 5 mM MgSO4 at pH 7.5 to give approximately 10% conversion of cGMP substrate to GMP in a 30 minute reaction time.
as §2, §3

[3] = test system: ca/calmodulin dependent cGMP PDE from bovine aorta; assay: Assay for inhibition of calcium/calmodulin dependent cGMP phosphodiesterase enzyme (Ca PDE); type: biochemical; conditions: CaCl2 and calmodulin, averaged where multiple testing, read-out: Ca GMP PDE IC50
Method: as §1, §2, §3
The procedure for the calcium/calmodulin dependent cGMP PDE assay was identical to the cGMP-specific phosphodiesterase assay described above, except for the following changes noted below. Partially purified ca/calmodulin dependent cGMP PDE enzyme from bovine aorta was collected as a pool based upon its elution relative to cAMP-dependent PDE and conformational changes introduced by the addition of 1 mM EDTA for 1 hour at 4° C. It was then diluted 1:1800 in assay buffer containing 143 μM CaCl2 and 0.7 units of calmodulin/ml and 70 μl of this enzyme solution was used per assay well. The standard control used was Vinpocetine purchased from Gedeon Richter LTD, Budapest, Hungary.

[4] = In vivo blood pressure measurement in rats (femoral artery catheter); parameters: species or system male Sprague Dawley rats; conditions: intraperitoneal injection
From the text: The FIGURE is a plot of mean blood pressure (mmHg) versus time (min) for anesthetized male Sprague Dawley rats (Charles River Laboratories, Wilmington, Mass.) following administration of a cyclic GMP phosphodiesterase inhibitor of this in vention by intraperitoneal injection.
Polyethylene catheters (PE50) were inserted into the femoral artery and vein of anesthetized male Sprague Dawley rats (Charles River Laboratories,Wilmington, Mass.) in order to monitor the mean arterial pressure and administer test compounds. Following surgery, the animals were place in individual restraining cages and allowed to regain consciousness. Infusion of 0.9% sodium chloride via the femoral vein (0.07 ml/kg/min) was begun and continued throughout the study period. Observations were begun approximately 90 minutes after the initiation of infusion to allow the animals to fully regain consciousness. Blood pressure was continuously monitored via the femoral artery with a pressure transducer (type 041-500-503; Cobe, Lakewood, Colo.) connected to a Grass Model 7E polygraph. Mean arterial pressure and heart rates were recorded at 3 minute intervals by a computerized data acquisition system. Cyclic GMP phosphodiesterase inhibitor (Example 41) was administered as an intraperitoneal injection, alternatively the inhibitor could have been administered directly into the catheter as an intravenous bolus.

[5] = rats; McMahon et al. 1989; cited from earlier work

| SMILES | IC50 [1] [µM] | IC50 [2] [µM] | IC50 [3] [µM] | reduction in blood pressure [4] | mean arterial pressure [5] | urinary cGMP (and not cAMP) levels [5] |
| --- | --- | --- | --- | --- | --- | --- |
| c1ccc(Cn2c(-c3ccc4c(c3)OCO4)nc3ccccc32)cc1 [Example 25, 2-(1,3-Benzodioxol-5-yl)-1-phenylmethyl-1H-benzimidazole] | 12.4 | 0.011 | 75 | – | – | – |
| Fc1ccccc1Cn1c(-c2ccc3c(c2)OCO3)nc2ccccc21 [Example 30, 2-(1,3-Benzodioxol-5-yl)-1-(2-fluorophenylmethyl)-1H-benzimidazole] | > 100 | 0.004 | > 100 | – | – | – |
| Cc1ccc(-c2nc3ccccc3n2Cc2ccc3c(c2)OCO3)cc1 [Example 42, 1-[(1,3-benzodioxol-5-yl)methyl]-2-(4-methylphenyl)-1H-benzimidazole] | 18 | 0.009 | 60 | – | – | – |
| CCCOc1ccccc1-c1nc2[nH]nnc2c(=O)[nH]1 [M&B 22,948, 2-o-propoxyphenyl-8-azapurin-6-one] | – | – | – | – | dose-dependent reduction in the mean arterial pressure | increase in urinary cGMP (and not cAMP) levels |

Second part, led by results:

| IC50 [1] [µM] | IC50 [2] [µM] | IC50 [3] [µM] | SMILES | reduction in blood pressure [4] | mean arterial pressure [5] | urinary cGMP (and not cAMP) levels [5] |
| --- | --- | --- | --- | --- | --- | --- |
| 5.2 | 0.024 | 60 | c1ccc2cc(Cn3c(-c4ccc5c(c4)OCO5)nc4ccccc43)ccc2c1 [Example 29, 2-(1,3-Benzodioxol-5-yl)-1-(2-naphthalenylmethyl)-1H-benzimidazole] | – | – | – |
| 11.9 | 0.003 | 64.5 | c1ccc2c(c1)nc(-c1ccc3c(c1)OCO3)n2Cc1ccc2c(c1)OCO2 [Example 41, 2-(1,3-Benzodioxol-5-yl)-1-[(1,3-benzodioxol-5-yl)methyl]-1H-benzimidazole] | A reduction in blood pressure was observed | – | – |
| 7.3 | 0.003 | > 100 | c1ccc(Cn2c(-c3ccc4c(c3)OCO4)nc3cccnc32)cc1 [Example 43, 2-(1,3-Benzodioxol-5-yl)-3-(phenylmethyl)-3H-imidazo[4,5-b]pyridine] | – | – | – |
